Literature values, collected in publication PMC11577316, “Tuning the Properties of Rigidified Acyclic DEDPA^2– Derivatives for Application in PET Using Copper-64” (Inorganic Chemistry, 2024).
Read-outs that look alike come from different tables or passages of the source. Marks after values point to notes of the source that are not given here. Values belong to the compound of their own block, whether it stands above or below them.

Assays:
[1] = set-up: method as in PMID 22583103; details: vs Ag/AgCl ref 28
[2] = not given; remark: listed apart in the source
[3] = not given; remark: listed apart in the source

irreversible reduction peak [1]: −1.12 V
SMILES: O=C([O-])c1cccc(CNCCNCc2cccc(C(=O)[O-])n2)n1.[Cu+2] [[Cu(DEDPA)]]

log KCuL (Cu(II) complex, 0.15 M NaCl ref 28): 19.16 ^d
pCu (–log [Cu(II)]free, [L]tot = 10 μM, [Cu(II)]tot = 1 μM, column footnote c: 0.15 M NaCl ref 26): 18.5
log K1^H ([2]; 0.1 M (Me4N)(NO3) ref 25): 8.69
log K2^H ([2]; 0.1 M (Me4N)(NO3) ref 25): 6.18
log K3^H ([2]; 0.1 M (Me4N)(NO3) ref 25): 3.08
log K4^H ([2]; 0.1 M (Me4N)(NO3) ref 25): 2.33
log K1^H ([2]; 0.15 M NaCl ref 26): 9.00
log K2^H ([2]; 0.15 M NaCl ref 26): 6.30
log K3^H ([2]; 0.15 M NaCl ref 26): 3.06
log K4^H ([2]; 0.15 M NaCl ref 26): 2.59
SMILES: O=C(O)c1cccc(CNCCNCc2cccc(C(=O)O)n2)n1 [DEDPA^2–, 6,6′-((ethane-1,2-diylbis(azanediyl))bis(methylene))dipicolinic acid]

stability in serum [3]: poor stability in serum
SMILES: O=C([O-])c1cccc(CNCCNCc2cccc(C(=O)[O-])n2)n1.[64Cu+2] [[^64Cu(DEDPA)]]
